The record followed here is patent US8008488B2 (Abbott GmbH & Co. KG, priority 2003, dated 2011).

Counter-ions that a name gives are not always drawn.

Assay [1] concerns the target T1, human dopamine D2L receptors (long isoform) (Homo sapiens, UniProt P14416).
T1 construct: expressed in transfected cells
In words: Dopamine D2L receptor binding, displacement of [125I]-iodospiperone. Conditions: *Ki(D2L)/Ki(D3), HEK-293 membranes, 0.01 nM [125I]-iodospiperone. Here is the method: (§1) The substance to be tested was dissolved either in methanol/Chremophor® (BASF-AG) or in dimethyl sulfoxide and then diluted with water to the desired concentration.
(§2) Triplicate mixtures were carried out.
The incubation buffer contained 50 mM Tris, 120 mM NaCl, 5 mM KCl, 2 mM CaCl2, 2 mM MgCl2 and 0.1% bovine serum albumin. The buffer was adjusted to pH 7.4 with HCl.
(§3) Measurement and Evaluation:
(§4) After incubation at 25° C. for 60 minutes, the mixtures were filtered under vacuum through Whatman GF/B glass fiber filters using a cell harvester. The filters were transferred by a filter transfer system into scintillation vials. After addition of 4 ml of Ultima Gold® (Packard), the samples were shaken for one hour and then the radioactivity was calculated in a beta counter (Packard, Tricarb 2000 or 2200CA). The cp values were converted into dpm by means of a standard quench series with the aid of the instrument's own program.
(§5) Evaluation of the inhibition plots took place by iterative nonlinear regression analysis using the Statistical Analysis System (SAS) similar to the “LIGAND” program described by Munson and Rodbard.
Background: Loss of bound radioactivity is the signal in a displacement assay; it reports binding, not function.

Assay [2] concerns the target T2, human dopamine D3 receptors (Homo sapiens, UniProt P35462).
T2 construct: expressed in transfected cells
As to the kind of experiment: Dopamine D3 receptor binding, displacement of [125I]-iodosulpride. Conditions: membranes from HEK-293 cells with stably expressed human D3 receptors, 0.1 nM [125I]-iodosulpride. The protocol: as §1, §2
The incubation buffer contained 50 mM Tris, 120 mM NaCl, 5 mM KCl, 2 mM CaCl2, 2 mM MgCl2 and 0.1% bovine serum albumin, 10 μM quinolone, 0.1% ascorbic acid (prepared fresh each day). The buffer was adjusted to pH 7.4 with HCl.
as §3, §4, §5

T2 sequence (P35462 whole entry): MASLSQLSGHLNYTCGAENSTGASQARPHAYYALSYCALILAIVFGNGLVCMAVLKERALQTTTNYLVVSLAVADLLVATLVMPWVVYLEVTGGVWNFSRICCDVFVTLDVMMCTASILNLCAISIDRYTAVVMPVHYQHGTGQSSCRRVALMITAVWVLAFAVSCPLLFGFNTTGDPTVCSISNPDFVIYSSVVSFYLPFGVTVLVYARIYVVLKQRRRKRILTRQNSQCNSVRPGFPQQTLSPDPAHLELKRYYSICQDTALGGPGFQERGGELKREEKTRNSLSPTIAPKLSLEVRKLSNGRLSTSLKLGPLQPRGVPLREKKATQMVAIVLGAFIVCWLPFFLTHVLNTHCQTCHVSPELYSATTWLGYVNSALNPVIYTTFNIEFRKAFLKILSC
T1 sequence (P14416 whole entry, canonical isoform): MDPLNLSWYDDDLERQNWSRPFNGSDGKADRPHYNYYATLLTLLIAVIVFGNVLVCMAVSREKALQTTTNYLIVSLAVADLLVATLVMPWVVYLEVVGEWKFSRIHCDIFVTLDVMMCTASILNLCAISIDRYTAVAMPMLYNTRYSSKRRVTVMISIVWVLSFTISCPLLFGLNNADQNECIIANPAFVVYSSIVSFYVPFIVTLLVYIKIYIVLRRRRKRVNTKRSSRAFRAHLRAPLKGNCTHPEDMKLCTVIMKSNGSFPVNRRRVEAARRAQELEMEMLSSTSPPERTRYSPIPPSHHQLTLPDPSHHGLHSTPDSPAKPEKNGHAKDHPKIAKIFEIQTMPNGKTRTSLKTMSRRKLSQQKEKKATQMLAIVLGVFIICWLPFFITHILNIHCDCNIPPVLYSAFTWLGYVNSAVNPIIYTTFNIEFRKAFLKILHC

On to `Cc1ccc(-c2ccn(CCCCN3CCN(c4cc(C(F)(F)F)nc(C(C)(C)C)n4)CC3)c(=O)n2)cc1` [Example 66, 4-(2-tert-Butyl-6-trifluoromethylpyrimidin-4-yl)-1-[4-(2-oxo-4-(p-tolyl)-2H-pyrimidin-1-yl)butyl]piperazin-1-ium fumarate], for which the “Selectivity D3 vs. D2L*” value in assay [1] was found to be 37. Moreover, in assay [2], the affinity corresponds to a Ki of 13.5 nM.

In the case of “1-{4-[4-(2,3-Dichlorophenyl)piperazin-1-yl]butyl}-5-methyl-1H-pyrimidine-2,4-dione [Example 82]”, the “Selectivity D3 vs. D2L*” value in assay [1] is reported as 54. Besides, the affinity in assay [2] corresponds to a Ki of 0.31 nM.

Regarding `CCCc1cc(N2CCN(CCCCn3cc(C)c(O)nc3=O)CC2)nc(C(C)(C)C)n1` [Example 10, 1-{4-[4-(2-tert-Butyl-6-propylpyrimidin-4-yl)piperazin-1-yl]butyl}-4-hydroxy-5-methylpyrimidin-2(1H)-one], in assay [1], the “Selectivity D3 vs. D2L*” value stood at 97. The Ki in assay [2] stood at 1.75 nM.

`Cc1ccccc1N1CCN(CCCCn2cc(C)c(=O)[nH]c2=O)CC1` [Example 111, 5-Methyl-1-[4-(4-(o-tolyl)piperazin-1-yl)butyl]-1H-pyrimidine-2,4-dione]: the “Selectivity D3 vs. D2L*” value in assay [1] was found to be 30. In assay [2], this compound gave a Ki of 6.8 nM.

For the compound `CCCc1cc(N2CCN(CCCCn3ccc(C(F)(F)F)nc3=O)CC2)nc(C(C)(C)C)n1` [Example 41, 1-{4-[4-(2-tert-Butyl-6-propylpyrimidin-4-yl)piperazin-1-yl]butyl}-4-trifluoromethyl-1H-pyrimidin-2-one], the “Selectivity D3 vs. D2L*” value in assay [1] came to 62. In addition, in assay [2], the affinity corresponds to a Ki of 5.78 nM.

On to `Cc1cnc(=O)n(CCCCN2CCN(c3cc(C(F)(F)F)nc(C(C)(C)C)n3)CC2)c1` [Example 6, 1-(4-{4-[2-tert-Butyl-6-(trifluoromethyl)pyrimidin-4-yl]piperazin-1-yl}butyl)-5-methylpyrimidin-2(1H)-one], for which the “Selectivity D3 vs. D2L*” value in assay [1] amounted to 35. This compound gave a Ki in assay [2] of 31.2 nM.

Take `CCOc1ccn(CCCCN2CCN(c3cc(C(F)(F)F)nc(C(C)(C)C)n3)CC2)c(=O)n1` [Example 85, 4-(2-tert-Butyl-6-trifluoromethylpyrimidin-4-yl)-1-[4-(4-ethoxy-2-oxo-2H-pyrimidin-1-yl)butyl]piperazin-1-ium fumarate]: in assay [1], the “Selectivity D3 vs. D2L*” value turned out to be 35. The affinity in assay [2], expressed as Ki, was 7.36 nM.

Consider `Cc1cn(CC(C)CCN2CCN(c3cc(C(F)(F)F)nc(C(C)(C)C)n3)CC2)c(=O)[nH]c1=O` (stereo not drawn) [Example 37, 1-(4-{4-[2-tert-Butyl-6-(trifluoromethyl)pyrimidin-4-yl]piperazin-1-yl}-2-methylbutyl)-5-methylpyrimidine-2,4(1H,3H)-dione], for which the “Selectivity D3 vs. D2L*” value in assay [1] is on record as 126. This compound also showed a Ki in assay [2] of 3.24 nM.

Consider `CCCc1cc(N2CCN(CCCCn3ccc(OCC)nc3=O)CC2)nc(C(C)(C)C)n1` [Example 86, 4-(2-tert-Butyl-6-propylpyrimidin-4-yl)-1-[4-(4-ethoxy-2-oxo-2H-pyrimidin-1-yl)butyl]piperazin-1-ium fumarate], for which the “Selectivity D3 vs. D2L*” value in assay [1] came out at 43. Affinity in assay [2] was put at a Ki of 2.44 nM.

With `Cc1cn(CCCCN2CCN(c3cccc(Cl)c3Cl)CC2)c(=O)[nH]c1=O` [Example 135, 1-{4-[4-(2,3-Dichlorophenyl)piperazin-1-yl]butyl}-5-methyl-1H-pyrimidine-2,4-dione], in assay [1], the “Selectivity D3 vs. D2L*” value was determined as 87. In addition, the Ki in assay [2] amounted to 0.27 nM.

Turning to `CC(C)(C)c1nc(C2CCC2)cc(N2CCN(CCCCn3ccc(=O)[nH]c3=O)CC2)n1` [Example 23, 1-{4-[4-(2-tert-Butyl-6-cyclobutylpyrimidin-4-yl)piperazin-1-yl]butyl}pyrimidine-2,4(1H,3H)-dione], the “Selectivity D3 vs. D2L*” value in assay [1] is recorded as 63. Besides, the inhibition constant (Ki) in assay [2] is 1.51 nM.

Consider `COc1cc(OC)cc(N2CCN(CCCCn3cc(C)c(=O)[nH]c3=O)CC2)c1` [Example 134, 1-{4-[4-(3,5-Dimethoxyphenyl)piperazin-1-yl]butyl}-5-methyl-1H-pyrimidine-2,4-dione], for which the “Selectivity D3 vs. D2L*” value in assay [1] is 55. In assay [2], the Ki stood at 13.1 nM.

As for `CCCc1cc(N2CCN(CCCCn3ccc(-c4cccs4)nc3=O)CC2)nc(C(C)(C)C)n1` [Example 87, 1-{4-[4-(2-tert-Butyl-6-propylpyrimidin-4-yl)piperazin-1-yl]butyl}-4-thiophen-2-yl-1H-pyrimidin-2-one], the “Selectivity D3 vs. D2L*” value in assay [1] worked out at 31. Further, the affinity in assay [2] corresponds to a Ki of 0.97 nM.

Consider `CC(C)(C)c1nc(N2CCN(CCCCn3ccc(O)nc3=O)CC2)cc(C(F)(F)F)n1` [Example 13], for which, in assay [1], the “Selectivity D3 vs. D2L*” value was found to be 104. In addition, in assay [2], the affinity, expressed as Ki, was 1.88 nM.

On to `CCc1ccn(CCCCN2CCN(c3cc(C(F)(F)F)nc(C(C)(C)C)n3)CC2)c(=O)n1` [Example 95, 4-(2-tert-Butyl-6-trifluoromethylpyrimidin-4-yl)-1-[4-(4-ethyl-2-oxo-2H-pyrimidin-1-yl)butyl]piperazin-1-ium fumarate], for which, in assay [1], the “Selectivity D3 vs. D2L*” value amounted to 45. The compound also yielded a Ki in assay [2] of 6.53 nM.

In the case of `CC(C)c1ccn(CCCCN2CCN(c3cc(C(F)(F)F)nc(C(C)(C)C)n3)CC2)c(=O)n1` [Example 97, 4-(2-tert-Butyl-6-trifluoromethylpyrimidin-4-yl)-1-[4-(4-isopropyl-2-oxo-2H-pyrimidin-1-yl)butyl]piperazin-1-ium fumarate], the “Selectivity D3 vs. D2L*” value in assay [1] was determined as 58. The compound also registered an inhibition constant (Ki) in assay [2] of 4.26 nM.

As to `O=c1[nH]c(=O)n(CCCCN2CCN(c3cccc(Cl)c3Cl)CC2)cc1F` [Example 79, 1-{4-[4-(2,3-Dichlorophenyl)piperazin-1-yl]butyl}-5-fluoro-1H-pyrimidine-2,4-dione], in assay [1], the “Selectivity D3 vs. D2L*” value is 30. For the same compound, affinity in assay [2] was put at a Ki of 0.86 nM.

On to `Cc1cn(CCCCN2CCN(c3cc(C(C)C)nc(C(C)(C)C)n3)CC2)c(=O)[nH]c1=O.Cl` [Example 40, 4-(2-tert-Butyl-6-isopropylpyrimidin-4-yl)-1-[4-(5-methyl-2,4-dioxo-3,4-dihydro-2H-pyrimidin-1-yl)-butyl]piperazin-1-ium chloride], for which the “Selectivity D3 vs. D2L*” value in assay [1] came to 67. Further, the Ki in assay [2] turned out to be 2.12 nM.

As for `CCCc1cc(N2CCN(CCCCn3ccc(-c4ccc(C)cc4)nc3=O)CC2)nc(C(C)(C)C)n1` [Example 75, 4-(2-tert-Butyl-6-propylpyrimidin-4-yl)-1-[4-(2-oxo-4-(p-tolyl)-2H-pyrimidin-1-yl)butyl]piperazine 1-fumarate], in assay [1], the “Selectivity D3 vs. D2L*” value is 80. The Ki in assay [2] was 2.3 nM.

In the case of `CCCc1cc(N2CCN(CCCCn3ccc(C4CCCCC4)nc3=O)CC2)nc(C(C)(C)C)n1` [Example 100, 4-(2-tert-Butyl-6-propylpyrimidin-4-yl)-1-[4-(4-cyclohexyl-2-oxo-2H-pyrimidin-1-yl)butyl]piperazin-1-ium fumarate], the “Selectivity D3 vs. D2L*” value in assay [1] was found to be 51. This compound yielded a Ki in assay [2] of 1.38 nM.

As for `CCCc1cc(N2CCN(CCCCn3cc(C(F)(F)F)c(=O)[nH]c3=O)CC2)nc(C(C)(C)C)n1` [Example 56, 1-{4-[4-(2-tert-Butyl-6-propylpyrimidin-4-yl)piperazin-1-yl]butyl}-5-trifluoromethyl-1H-pyrimidine-2,4-dione], in assay [1], the “Selectivity D3 vs. D2L*” value was found to be 134. Affinity in assay [2] was put at a Ki of 1.02 nM.

In the case of `CCCc1cc(N2CCN(C/C=C(\C)Cn3cc(C)c(=O)[nH]c3=O)CC2)nc(C(C)(C)C)n1` [Example 65], the “Selectivity D3 vs. D2L*” value in assay [1] is listed as 62. Also, the inhibition constant Ki in assay [2] was found to be 3.31 nM.

Turning to `CCCc1cc(N2CCN(C(C)CCCn3cc(C)c(=O)[nH]c3=O)CC2)nc(C(C)(C)C)n1` (single isomer, unassigned; (+)) [Example 63, (+)-1-{4-[4-(2-tert-Butyl-6-propylpyrimidin-4-yl)piperazin-1-yl]pentyl}-5-methyl-1H-pyrimidine-2,4-dione], in assay [1], the “Selectivity D3 vs. D2L*” value is 65. Further, in assay [2], the Ki was determined as 2.97 nM.

Regarding `Cc1cn(CCCCN2CCN(c3cc(C(F)(F)F)nc(C(C)(C)C)n3)CC2)c(=O)nc1NCc1ccccc1` [Example 11, 4-(Benzylamino)-1-(4-{4-[2-tert-butyl-6-(trifluoromethyl)pyrimidin-4-yl]piperazin-1-yl}butyl)-5-methylpyrimidin-2(1H)-one], the “Selectivity D3 vs. D2L*” value in assay [1] is given as 65. The affinity in assay [2], expressed as Ki, was 3.14 nM.

Turning to `Cc1cn(CCCCN2CCN(c3cc(Cl)cc(Cl)c3)CC2)c(=O)[nH]c1=O` [Example 119, 1-{4-[4-(3,5-Dichlorophenyl)piperazin-1-yl]butyl}-5-methyl-1H-pyrimidine-2,4-dione], in assay [1], the “Selectivity D3 vs. D2L*” value came out at 65. In assay [2], this compound came in with a Ki of 0.46 nM.

Regarding `CCCc1cc(N2CCN(CCCCn3ccc(O)nc3=O)CC2)nc(C(C)(C)C)n1` [Example 20, 1-{4-[4-(2-tert-Butyl-6-propylpyrimidin-4-yl)piperazin-1-yl]butyl}-4-hydroxypyrimidin-2(1H)-one], in assay [1], the “Selectivity D3 vs. D2L*” value came to 108. Further, the affinity in assay [2] corresponds to a Ki of 1.87 nM.

As to `CCCc1cc(N2CCN(CCCCn3ccc(C(C)C)nc3=O)CC2)nc(C(C)(C)C)n1` [Example 98, 4-(2-tert-Butyl-6-propylpyrimidin-4-yl)-1-[4-(4-isopropyl-2-oxo-2H-pyrimidin-1-yl)butyl]piperazine 1-fumarate], the “Selectivity D3 vs. D2L*” value in assay [1] worked out at 59. In assay [2], this compound came in with a Ki of 1.62 nM.

Usually Ki stands for a dissociation constant, usually derived from enzyme kinetics or from competition with a known ligand.
